Measurements published in patent publication US20260373101A1, “POLYAMINATED FATTY ACIDS FOR USE AS POTENTIATORS OF ANTIBACTERIAL ACTIVITY” (priority 2023, published 2026).
≈ marks a conversion by molar mass, not a printed value.

How the values were obtained:
Format in all cases: cell-based
P. aeruginosa ATCC27853 [1] = experiment: Antibacterial activity in combination with doxycycline; settings: Pseudomonas aeruginosa, 24 h
Method: 100 μl of a liquid culture medium is deposited in each well of a 96-well microplate, and then inoculated with the bacterial suspension of example 2.1 prepared for the positive control. The volume needed to inoculate is calculated for an OD of 0.01 which corresponds to approximately 5,106 bacteria in each well. In this plate, the first row corresponds to a negative control (200 μl of sterile culture medium in each well), the second row to a positive control (100 μl of sterile culture medium with 100 μl of the bacterial suspension), the third row contains 192 μl of culture medium and 8 μl of polyaminated fatty acid compound to be tested in each well. Subsequently, a cascade dilution is performed from this line. Next, 3-8 μl of a doxycycline solution (1 mg dissolved in 20 ml) is added to each well of the lines to obtain a final antibiotic concentration of 2 μg/ml. Then, 92 μl of bacterial suspension is added to lines 3 to 8. The MIC with a concentration of doxycycline of 2 μg/ml in the presence of X μg/ml of polyaminated fatty acid compound is determined after 24 hours of incubation at 37 °C in a humid atmosphere.
The table 2 below reports the antibacterial activity (MIC in μM) of a combination of some polyaminated fatty acids prepared in example 1 with two antibacterial drugs doxycycline and erythromycin. […] On the Gram-negative strain of E. coli ([…]), erythromycin has a MIC of 50 μg/ml.

E. coli AG-100 = experiment: Potentiation of known antibiotics (MIC of antibiotic alone or with PAFA); settings: Escherichia coli, AG100, 24 h
Method: (§1) 100 μl of a liquid culture medium is deposited in each well of a 96-well microplate, and then inoculated with the bacterial suspension of example 2.1 prepared for the positive control. The volume needed to inoculate is calculated for an OD of 0.01 which corresponds to approximately 5,106 bacteria in each well. In this plate, the first row corresponds to a negative control (200 μl of sterile culture medium in each well), the second row to a positive control (100 μl of sterile culture medium with 100 μl of the bacterial suspension), the third row contains 192 μl of culture medium and 8 μl of an antibiotic solution (10 mg/ml) to be tested in each well. Subsequently, a cascade dilution is performed from this line. Next, 10 μl of a fatty acid solution (10 μM final concentration) is added to each well of the lines. Then, 90 μl of bacterial suspension is added to lines 3 to 8. The MIC of the antibiotic tested is determined after 24 hours of incubation at 37 °C in a humid atmosphere.
(§2) The table 3 below reports the antibacterial activity (MIC in μg/mL) of a combination of some polyaminated fatty acids prepared in example 1 with various antibacterial drugs: doxycycline (DOX), tetracycline (TET), oxytetracycline (OXY) and minocycline (MINO), against various bacterial strains of P. aeruginosa (PA01, PA0509, and PA263), and of E. coli (AG-100 and AG-100A).

P. aeruginosa PA01 = experiment: as above; settings: Pseudomonas aeruginosa, PA01, 24 h
Method: as §1, §2

P. aeruginosa PA0509 = experiment: as above; settings: Pseudomonas aeruginosa, PA0509, 24 h
Method: as §1, §2

P. aeruginosa PA263 = experiment: as above; settings: Pseudomonas aeruginosa, PA263, 24 h, 24 h
Method: as §1, §2

E. coli AG-100A = experiment: as above; settings: Escherichia coli, AG100A, 24 h
Method: as §1, §2

E. coli ATCC28922 = experiment: Intrinsic antibacterial activity, standard microdilution (CLSI); settings: Escherichia coli, ATCC28922, 24 h
P. aeruginosa ATCC27853 [2] = experiment: as above; settings: Pseudomonas aeruginosa; P. aeruginosa ATCC27853, compound alone, 24 h, 37 °C
Method: (§3) The bacterial strains used in the examples below are the reference strains P. aeruginosa ATCC27853, E. coli ATCC25922, K. pneumoniae ATCC51296, S. aureus ATCC25923 and E. faecalis ATCC29212. The bacterial strains were previously stored in 15% (v/v) glycerol at −80 °C for cryoprotection. One colony of the fresh culture of each strain was incubated in a culture tube containing 3 ml of Mueller-Hinton broth (MH2) at 37 °C overnight with agitation. This suspension was used for inoculum preparation.
(§4) The antibacterial activity of said polyaminated fatty acid compounds was measured using a standard microdilution test based on Clinical and Laboratory Standards Institute (CLSI) guidelines. This method was slightly modified by increasing the assay volumes to 200 μl so as to improve reproducibility.
(§5) A negative control which corresponds to 2 ml of sterile culture medium and a positive control which corresponds to a mixture of 1980 μl of culture medium and 20 μl of bacterial suspension from a thawed biological strain (biological strains are stored at −80 °C in glycerol) were prepared.
(§6) The tubes were incubated in an incubator shaker “Infors” at 37 °C for 24 hours at 100 round per minute (rpm).
(§7) The polyaminated fatty acid compounds to be tested were prepared in water at a concentration of 10 mM.
(§8) The required volume of the microbial suspension to be inoculated was calculated for an optical density (OD) measured corresponding to a value equal to 0.01 in each well by using a spectrophotometer at 600 nm. In the microplate, the first row corresponded to the negative control (200 μl of sterile culture medium in each well), the second row to the positive control (seeded culture medium), the third row was loaded twice with bacterial suspension and with 8 μl of a given polyaminated fatty acid compound in each well. Subsequently, a half-fold cascade dilution was performed from this line. The first column was used as an inhibition control. A sterile filter was then placed on the microplate allowing the passage of gases but not contaminants. The microplate was incubated at 37 °C in a humid atmosphere for 24 hours. After 24 hours of incubation, an optical density measurement was performed by taking 100 μl of the bacterial suspension diluted in 900 μl of sterile culture medium.
(§9) The medium used was Mueller-Hinton medium (MH) for bacteria. All tests were performed in duplicate.
(§10) Table 1 below reports the intrinsic antibacterial activity of some polymaminated fatty acids prepared in example 1 (MIC in μM) as well as their toxicity towards eucaryotic cells (IC50 in μM).

S. aureus ATCC25923 = experiment: as above; settings: Staphylococcus aureus; S. aureus ATCC25923, compound alone, 24 h, 37 °C
Method: as §3, §4, §5, §6, §7, §8, §9, §10

E. faecalis ATCC29212 = experiment: as above; settings: Enterococcus faecalis; E. faecalis ATCC29212, compound alone, 24 h, 37 °C
Method: as §3, §4, §5, §6, §7, §8, §9, §10

[3] = system: Chinese hamster ovary cells (CHO-K1); experiment: Toxicity on mammalian cells, WST1 assay; settings: Cricetulus griseus; CHO-K1 cell viability, WST1, 24 h
Method: The WST1 assay was used to measure the cytotoxic activity of the polyaminated fatty acid compounds. It is a colorimetric assay that measures viability and cell proliferation rate. It is based on the cleavage of colorless tetrazolium salts WST-1 (4-[3-(4-iodophenyl)-2-(4-nitrophenyl)-2H-5-tetrazolio]-1,3-benzene disulfonate) by mitochondrial dehydrogenases into yellow formazan derivative, quantifiable by spectrophotometry at 420-480 nm.
The WST1 assay was performed on Chinese hamster ovary cells. CHO-K1 cells (ATCC, USA) were maintained in culture in “Mac Coy's 5A” medium supplemented with 10% fetal calf serum, 2 mM L-glutamine and streptomycin penicillin mixture (100 U/ml: 10 μg/ml). Incubation is carried out at 37 °C under CO2 enriched atmosphere (5% by volume) and subcultured every two days.
Cells are transferred to 96-well plates (25,000 cells/ml) in complete “Mac Coy's 5A medium”, and maintained for 24 h at 37 °C under a humid CO2-enriched atmosphere (5% by volume). Increasing concentrations of given polyaminated fatty acid compounds are added to the wells in duplicate assays and 8 growth controls containing cells in medium alone are included in each assay run. After 24 hours at 37 °C (5% CO2), the culture medium is removed, the cells are rinsed in phosphate buffer (PBS) and 50 μL of PBS containing 10% WST1 reagent is added to each well. After 20 minutes of incubation at 37 °C, the results are read by spectrophotometry at 450 nm.
The results are expressed as dose-response relationships, modeled by a non-linear regression analysis using TableCurve software. The 50% Inhibitory Concentration (IC50) represents the concentration of polyaminated fatty acid compound capable of reducing cell viability by 50%.

[4] = P. aeruginosa ATCC27853 + Doxycycline (2 μg/ml)

## C[C@H]1c2cccc(O)c2C(=O)C2=C(O)[C@]3(O)C(=O)C(C(N)=O)=C(O)[C@@H](N(C)C)[C@@H]3[C@@H](O)[C@@H]21 [DOX, doxycycline]
P. aeruginosa ATCC27853 [1]; antibiotic alone, P. aeruginosa ATCC27853
  MIC: 32 µg/mL
E. coli AG-100; AG-100, Antibiotic alone
  MIC: 1 µg/mL
E. coli AG-100; MIC of antibiotic, AG-100, +PAFA10 (10 μM)
  MIC: 0.25 µg/mL
E. coli AG-100; MIC of antibiotic, AG-100, +PAFA11 (10 μM)
  MIC: 0.25 µg/mL
E. coli AG-100; MIC of antibiotic, AG-100, +PAFA14 (10 μM)
  MIC: 0.008 µg/mL
P. aeruginosa PA01; MIC of antibiotic, PA01, +PAFA10 (10 μM)
  MIC: 2 µg/mL
P. aeruginosa PA01; MIC of antibiotic, PA01, +PAFA11 (10 μM)
  MIC: 2 µg/mL
P. aeruginosa PA01; MIC of antibiotic, PA01, +PAFA14 (10 μM)
  MIC: 0.125 µg/mL
P. aeruginosa PA01; PA01, Antibiotic alone
  MIC: 32 µg/mL
P. aeruginosa PA0509
  MIC: 1 µg/mL
P. aeruginosa PA0509; MIC of antibiotic, PA0509, +PAFA10 (10 μM), 24 h
  MIC: 0.25 µg/mL
P. aeruginosa PA0509; MIC of antibiotic, PA0509, +PAFA11 (10 μM), 24 h
  MIC: 0.25 µg/mL
P. aeruginosa PA0509; MIC of antibiotic, PA0509, +PAFA14 (10 μM), 24 h
  MIC: 0.125 µg/mL
P. aeruginosa PA263; MIC of antibiotic, PA263, +PAFA10 (10 μM)
  MIC: 8 µg/mL
P. aeruginosa PA263; MIC of antibiotic, PA263, +PAFA11 (10 μM)
  MIC: 4 µg/mL
P. aeruginosa PA263; MIC of antibiotic, PA263, +PAFA14 (10 μM)
  MIC: 1 µg/mL
P. aeruginosa PA263; PA263, Antibiotic alone
  MIC: 32 µg/mL
E. coli AG-100A; Antibiotic alone
  MIC: 0.5 µg/mL
E. coli AG-100A; MIC of antibiotic, +PAFA10 (10 μM)
  MIC: 0.25 µg/mL
E. coli AG-100A; MIC of antibiotic, +PAFA11 (10 μM)
  MIC: 0.25 µg/mL
E. coli AG-100A; MIC of antibiotic, +PAFA14 (10 μM)
  MIC: 0.008 µg/mL

## CCCCC/C=C\C/C=C\CCCCCCCC(=O)NCCCCN [PAFA8]
E. coli ATCC28922
  MIC: > 200 µM
P. aeruginosa ATCC27853 [2]
  MIC: > 200 µM
S. aureus ATCC25923
  MIC: 200 µM (≈ 70.1 µg/mL)
E. faecalis ATCC29212
  MIC: > 200 µM

## CCCCC/C=C\C/C=C\CCCCCCCC(=O)NCCCN(C)CCCN [PAFA9]
P. aeruginosa ATCC27853 [1]; [4]
  MIC: 25 µM
[3]
  IC50: 84 µM
E. coli ATCC28922
  MIC: 25 µM (≈ 10.2 µg/mL)
P. aeruginosa ATCC27853 [2]
  MIC: 200 µM (≈ 81.5 µg/mL)
S. aureus ATCC25923
  MIC: 50 µM (≈ 20.4 µg/mL)
E. faecalis ATCC29212
  MIC: 50 µM (≈ 20.4 µg/mL)

## CCCCC/C=C\C/C=C\CCCCCCCC(=O)NCCCN(CCCN)CCCN [PAFA10]
P. aeruginosa ATCC27853 [1]; [4]
  MIC: 12.5 µM
[3]
  IC50: 79 µM
E. coli ATCC28922
  MIC: > 200 µM
P. aeruginosa ATCC27853 [2]
  MIC: 25 µM (≈ 11.3 µg/mL)
S. aureus ATCC25923
  MIC: 25 µM (≈ 11.3 µg/mL)
E. faecalis ATCC29212
  MIC: 25 µM (≈ 11.3 µg/mL)
